According to publication PMC6278354, “Investigation of New Orexin 2 Receptor Modulators Using In Silico and In Vitro Methods” (Molecules, 2018):
Like-named read-outs stand apart in the source and are kept apart here.

Experiments:
[1] = PAMPA assay for prediction of BBB penetration (polar brain lipid); details: for Papp at 30 µM: PAMPA, pH 7.4; for CNS Predicted Availability: class from PAMPA Pe; for BBB permeation via passive diffusion, in words: from PAMPA Pe
[2] = MTT cytotoxicity assay; assay type: cell-based; details: Chinese hamster
Description: (§1) Adherent epithelial CHO-K1 cell line (Chinese hamster ovary, ATCC, #CCL-61, Manassas, VA, USA) was grown in Ham’s F12 Nutrient Mixture supplemented with 10% heat-inactivated FBS and antibiotics 1% penicillin (10,000 U/mL)/streptomycin (10,000 µg/mL) at 37 °C, 95% humidity and under 5% CO2.
(§2) The cytotoxic effect of the studied compounds was assessed using standard MTT (3-[4–dimethylthiazol-2-yl]-2,5-diphenyltetrazolium bromide) assay on the CHO-K1 cell line. […] Cells were seeded in 96-well plates and exposed to the tested compounds in the medium (100 µL) for 24 h at 37 °C, 95% humidity, and in an atmosphere of 5% CO2. Subsequently, this medium was replaced by the medium containing MTT (10 µM) and incubated for another 3–4 h. After that, the medium with MTT was removed and formazan crystals were dissolved by the addition of 100 µL DMSO. Viability of the cells was estimated spectrophotometrically by the amount of produced formazan. The absorbance was measured at 570 nm, with 650 nm as a reference wavelength on a Synergy HT reader (Biotek, USA). Results were expressed as IC50 from the control-subtracted triplicates (in comparison with untreated control) using non-linear regression (four parameters) in GraphPad Prism 7.03 (GraphPad Software Inc., CA, USA).

[3] = target: T1, human OX2R (Homo sapiens, UniProt O43614); test: OX2R calcium assay, antagonist mode against orexin A (Fluo-3, CHO-K1 cells stably expressing human OX2R); assay type: cell-based; details: for IC50: 0.1 μM orexin A as agonist, mean ± SEM, n = 3, read-out: IC50 antagonistic effect in orexin A-OX2R interaction; for antagonistic screening: reduction of orexin A response signal: ligand 10 μM, orexin A 100 nM, data not shown
T1 construct: host or cells: CHO-K1
T1 sequence (O43614 1-444): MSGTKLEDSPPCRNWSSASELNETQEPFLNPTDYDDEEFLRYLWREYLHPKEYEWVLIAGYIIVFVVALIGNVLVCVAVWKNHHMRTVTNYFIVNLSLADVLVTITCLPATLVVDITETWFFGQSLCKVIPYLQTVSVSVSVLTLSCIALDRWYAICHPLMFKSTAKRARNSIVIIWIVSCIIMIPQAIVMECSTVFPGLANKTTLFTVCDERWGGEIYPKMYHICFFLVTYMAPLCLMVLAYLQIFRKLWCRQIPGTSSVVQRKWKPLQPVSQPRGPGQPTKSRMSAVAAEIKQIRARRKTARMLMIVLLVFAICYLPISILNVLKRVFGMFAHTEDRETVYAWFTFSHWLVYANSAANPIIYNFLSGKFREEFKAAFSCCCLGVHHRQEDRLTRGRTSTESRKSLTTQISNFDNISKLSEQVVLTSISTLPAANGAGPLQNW

[4] = in vitro; details: PAMPA, pH 7.4
[5] = target: T1, human OX2R; test: OX2R calcium assay, agonist mode (Fluo-3, CHO-K1 cells stably expressing human OX2R); assay type: cell-based; details: for agonistic effect in screening: 10 μM ligand; for agonistic effect at higher concentrations: higher concentrations than 10 μM, data not shown
[6] = PAMPA, pH 7.4
[7] = system: CHO-K1 cell line; test: MTT cytotoxicity assay; assay type: cell-based; details: Chinese hamster, 24 h
Description: as §1, §2

[8] = CHO-K1 cells, MTT, 24 h exposure, read-out: Cytotoxicity CHO-K1 IC50 ± SEM

For `O=C(c1cnn(-c2ncc3c(n2)-c2ccccc2CC3)c1C1CC1)N1CCN(Cc2ccccc2)CC1` [Ligand L1, 1-(1-{5H,6H-benzo[h]quinazolin-2-yl}-5-cyclopropyl-1H-pyrazole-4-carbonyl)-4-benzylpiperazine], the IC50 at 24 h [2, 8] was 78.8 ± 6.88 µM, the Papp at 30 µM [1] was 10.2 ± 0.9 ×10⁻⁶ cm/s and the “CNS Predicted Availability” value [1] was “CNS + (CNS + (high BBB permeation predicted): Pe (×10^−6 cm s^−1) > 4.0)”.

For `O=C1CN(C(=O)CN2CCN(S(=O)(=O)c3ccc4ccccc4c3)CC2)c2ccccc2N1` [Ligand L2, 4-{2-[4-(naphthalene-2-sulfonyl)piperazin-1-yl]acetyl}-1,2,3,4-tetrahydroquinoxalin-2-one], the IC50 at 24 h [2, 8] was 165 ± 5.36 µM, the Papp at 30 µM [1] was 31.6 ± 3.4 ×10⁻⁶ cm/s and the “CNS Predicted Availability” value [1] was “CNS + (CNS + (high BBB permeation predicted): Pe (×10^−6 cm s^−1) > 4.0)”.

For `O=C(c1cc(-c2ccco2)nc2ccccc12)N1CCN(C(=O)C2COc3ccccc3O2)CC1` (stereo not shown) [Ligand L3, 4-[4-(2,3-dihydro-1,4-benzodioxine-2-carbonyl)piperazine-1-carbonyl]-2-(furan-2-yl)quinoline], the IC50 [3] was 8.9 ± 0.43 µM, the “antagonistic screening: reduction of orexin A response signal” value (from here on “antagonistic screening: reduction”) [3] was “significantly reduce the signal of orexin A response” and the IC50 at 24 h [2, 8] was 279 ± 36.6 µM. For the same compound, the Papp at 30 µM [1] was 17.9 ± 2.2 ×10⁻⁶ cm/s and the “CNS Predicted Availability” value [1] was “CNS + (CNS + (high BBB permeation predicted): Pe (×10^−6 cm s^−1) > 4.0)”.

In the case of `O=C(c1cc(-c2ccco2)nc2ccccc12)N1CCN(c2ccc(=O)n(-c3ccc(F)cc3)n2)CC1` [Ligand L4, 2-(4-fluorophenyl)-6-{4-[2-(furan-2-yl)quinoline-4-carbonyl]piperazin-1-yl}-2,3-dihydropyridazin-3-one], the IC50 [3] is reported as 2.2 ± 0.47 µM, the “antagonistic screening: reduction” value [3] is reported as “significantly reduce the signal of orexin A response” and the IC50 at 24 h [2, 8] is reported as 99.8 ± 10.7 µM. The Papp at 30 µM [1] was 18.3 ± 0.1 ×10⁻⁶ cm/s and the “CNS Predicted Availability” value [1] was “CNS + (CNS + (high BBB permeation predicted): Pe (×10^−6 cm s^−1) > 4.0)”.

For `CC1CCCC(=O)CCC/C=C/c2cc3c(c(O)c2C(=O)O1)C(c1cc2ccccc2nc1O)CC(=O)O3` (stereo not shown) [Ligand L5, (12E)-22-hydroxy-20-(2-hydroxyquinolin-3-yl)-4-methyl-3,17-dioxatricyclo[12.8.0.0^16,21]docosa-1(14),12,15,21-tetraene-2,8,18-trione], the Papp [4] was 12 ± 2.5 ×10⁻⁶ cm/s, the IC50 at 24 h ([2]; MTT, 24 h exposure, read-out: Cytotoxicity CHO-K1 IC50 ± SEM) was 59 ± 6.41 µM and the “CNS Predicted Availability” value [1] was “CNS + (CNS + (high BBB permeation predicted): Pe (×10^−6 cm s^−1) > 4.0)”.

With `Cn1c(=O)c2c(-c3ccccc3)n3c(c2n(C)c1=O)C(c1coc2ccccc2c1=O)OCC3` (stereo not shown) [Ligand L6, 3,5-dimethyl-13-(4-oxo-4H-chromen-3-yl)-8-phenyl-12-oxa-3,5,9-triazatricyclo[7.4.0.0^2,7]trideca-1,7-diene-4,6-dione] the IC50 [3] was 12.2 ± 3.1 µM, the “antagonistic screening: reduction” value [3] was “significantly reduce the signal of orexin A response” and the “agonistic effect in screening” value [5] was “subtle agonistic effect”. For the same compound, the “agonistic effect at higher concentrations” value [5] was “neither an agonistic nor dose-response effect”, the IC50 at 24 h [2, 8] was > 100 µM and the Papp at 30 µM [1] was 17.6 ± 6.4 ×10⁻⁶ cm/s. The “CNS Predicted Availability” value [1] was “CNS + (CNS + (high BBB permeation predicted): Pe (×10^−6 cm s^−1) > 4.0)”.

For `Cc1ccccc1Cn1cc(/C=C2\C(=N)N3N=C(CC(=O)N4CCCC4)SC3=NC2=O)c2ccccc21` [Ligand L7, (6E)-5-imino-6-({1-[(2-methylphenyl)methyl]-1H-indol-3-yl}methylidene)-2-[2-oxo-2-(pyrrolidin-1-yl)ethyl]-5H,6H,7H-[1,3,4]thiadiazolo[3,2-a]pyrimidin-7-one], the IC50 [3] was 25 ± 2.6 µM, the “antagonistic screening: reduction” value [3] was “significantly reduce the signal of orexin A response” and the IC50 at 24 h [2, 8] was 61.8 ± 3.74 µM. The Papp at 30 µM [1] was 3.37 ± 2.1 ×10⁻⁶ cm/s, the “Pe ± SEM” value ([1]; PAMPA-BBB, PBS pH 7.4, 30 µM donor, at least three measurements) was 2.0–4.0 ×10^−6 cm s^−1 and the “CNS Predicted Availability” value [1] was “CNS +/− (CNS +/− (BBB permeation uncertain): Pe (×10^−6 cm s^−1) from 4.0 to 2.0)”. The “BBB permeation via passive diffusion, in words” value [1] was “uncertain permeation through the BBB”.

With `O=C(Nc1ccc2n(c1=O)C[C@H]1C[C@@H]2CN(C(=O)c2ccccn2)C1)c1ccccc1` [Ligand L8, N-[(1R,9S)-6-oxo-11-(pyridine-2-carbonyl)-7,11-diazatricyclo[7.3.1.0^2,7]trideca-2,4-dien-5-yl]benzamide] the “Pe ± SEM” value [6] was 2.0–4.0, the Papp at 30 µM [4] was 4 ± 0.3 ×10⁻⁶ cm/s and the IC50 [7] was ~700 µM. For the same compound, the IC50 at 24 h ([2]; Cytotoxicity CHO-K1 IC50 ± SEM) was > 700 µM, the “CNS Predicted Availability” value [1] was “CNS +/− (CNS +/− (BBB permeation uncertain): Pe (×10^−6 cm s^−1) from 4.0 to 2.0)” and the “BBB permeation via passive diffusion, in words” value [1] was “uncertain permeation through the BBB”.

With `O=C(Cn1nc(-c2ccc(F)cc2)oc1=O)N1CCCC1c1ccc2c(c1)OCCCO2` (stereo not shown) [Ligand L9, 3-{2-[2-(3,4-dihydro-2H-1,5-benzodioxepin-7-yl)pyrrolidin-1-yl]-2-oxoethyl}-5-(4-fluorophenyl)-2,3-dihydro-1,3,4-oxadiazol-2-one] the “agonistic effect in screening” value [5] was “subtle agonistic effect”, the “agonistic effect at higher concentrations” value [5] was “neither an agonistic nor dose-response effect” and the IC50 at 24 h [2, 8] was 144 ± 11.1 µM. For the same compound, the Papp at 30 µM [1] was 32.3 ± 1.5 ×10⁻⁶ cm/s and the “CNS Predicted Availability” value [1] was “CNS + (CNS + (high BBB permeation predicted): Pe (×10^−6 cm s^−1) > 4.0)”.

In the case of `O=C1CC(C(=O)Nc2cccc(-c3ccc4c(c3)CCO4)c2)c2ccccc2N1` (stereo not shown) [Ligand L10, N-[3-(2,3-dihydro-1-benzofuran-5-yl)phenyl]-2-oxo-1,2,3,4-tetrahydroquinoline-4-carboxamide], the IC50 [3] is reported as 27.8 ± 0.5 µM, the “antagonistic screening: reduction” value [3] is reported as “significantly reduce the signal of orexin A response” and the IC50 at 24 h [2, 8] is reported as 53.9 ± 5.03 µM. The Papp at 30 µM [1] was 18.9 ± 2.4 ×10⁻⁶ cm/s and the “CNS Predicted Availability” value [1] was “CNS + (CNS + (high BBB permeation predicted): Pe (×10^−6 cm s^−1) > 4.0)”.

With `CCn1nnc2cc(C(=O)Nc3ccc4[nH]c(-c5cc(F)ccc5F)nc4c3)ccc21` [Ligand L11, N-[2-(2,5-difluorophenyl)-1H-1,3-benzodiazol-5-yl]-1-ethyl-1H-1,2,3-benzotriazole-5-carboxamide] the “agonistic effect in screening” value [5] was “subtle agonistic effect”, the “agonistic effect at higher concentrations” value [5] was “neither an agonistic nor dose-response effect” and the IC50 at 24 h [2, 8] was 28.3 ± 4.07 µM.

With `CNC(=C[N+](=O)[O-])NCCSCc1ccc(CN(C)C)o1` [Ranitidine, reference compound] the Papp [4] was 0.04 ± 0.02 ×10⁻⁶ cm/s and the “CNS Predicted Availability” value [1] was “CNS − (CNS − (low BBB permeation predicted): Pe (×10^−6 cm s^−1) < 2.0)”.
